Source: publication PMC8061941 (PLoS ONE, 2021)
“Also recorded” adds a separate entry of the source. Square brackets hold non-standard residues; d marks the D form. Ends that are not written are not given here. Peptide text beside a SMILES is read from it.

Tests used:
[1] = Mass spectrometry analysis of Ringers solution from Ussing chambers during ex vivo recovery (degradation and fragment formation); assay type: in vitro ADME, pig; conditions: for Fragment detected in Ringers solution during ex vivo recovery: Ussing chambers with ischemia-injured jejunum in presence of parent peptide (LA or A6), MS analysis, N = 4; for half-life: pig, tissue, pH 7.4, Ussing chamber Ringers solution, ex vivo recovery 240 minutes, LC-MS/MS, n = 4, read-out: Half-life in ischemic injured jejunum tissue
Source text: After 45-minutes of ischemia, the pigs were euthanized, and intestinal segments were collected. Non-ischemic control tissue was also collected at this time. Following tissue collection, the seromuscular layer was stripped from the mucosa while the tissue was bathed in oxygenated (95% O2, 5% CO2) Ringer’s solution (in mmol/L: 154 Na^+, 6.3 K^+, 137 Cl^-, and 24 HCO3^-; pH 7.4). The mucosa was subsequently mounted in 1.1-cm^2 aperture Ussing chambers, as described in previous studies. Tissues were bathed on both the mucosal and serosal sides with 10mL Ringer’s solution. The mucosal bathing solution contained 10mM mannitol while the serosal side was osmotically balanced with 10mM glucose. Bathing solutions were oxygenated (95% O2, 5% CO2) and circulated in water-jacketed reservoirs. The spontaneous potential difference (PD) was measured using Ringer-agar bridges connected to calomel electrodes, and the PD was short-circuited through Ag-AgCl electrodes using a voltage clamp that was corrected for fluid resistance. TER (Ω·cm^2) was calculated from the spontaneous PD and short-circuit current (Isc). If the spontaneous PD was between -1.0 and 1.0 mV, tissues were current clamped at ± 100 μA for 5-seconds, and the PD was recorded. Isc and PD were recorded at 15-minute intervals over a 4-hour experiment. After tissues were mounted on Ussing chambers, all tissues were allowed to acclimate for a period of 30-minutes to establish stable baseline measurements, after which experimental, single-dose treatments of LA, LA fragments (F1, F2, or F3) with or without LA, A6, or A6 with or without A6 fragments (A6F1 or A6F2) were added to the apical chamber. For the microdosing regimen of LA, multiple doses at various concentrations of LA were added initially after the 30-minute acclimation period and every 45-minutes following this initial dose. Tissues were monitored by measuring transepithelial resistance (TER) for 240 minutes. Samples of Ringers solution were collected at select timepoints and quenched with 5% trifluoroacetic acid (TFA) solution (in 80% acetonitrile (ACN): 20% DI water). […] Standardization of ischemic injury severity between intestinal loops was standardized using a similar method as previously described in another intestinal mucosal injury model. First, T = 0 TER values from separate studies utilizing juvenile porcine intestinal ischemic tissue across three years were averaged (24 Ω·cm^2), and the standard deviation of this dataset was calculated (11 Ω·cm^2). Tissues with a T = 0 TER value exceeding one standard deviation of the mean (i.e., < 13 or > 35 Ω·cm^2) were excluded from experiments and data analysis.

[2] = system: Aminopeptidase M (AM); experiment: AM (porcine kidney: Sigma) in simulated intestinal fluid (SIF) (without Pancreatin) pH 6.5 containing MgCl2 (10 μM); conditions: 37°C, up to 180 minutes
[3] = Ringers solution bathing ischemia-injured porcine jejunal mucosa mounted in Ussing chambers (ex vivo recovery); conditions: Yorkshire crossbred pigs, up to 240 minutes
[4] = molecular target: T1, aminopeptidase M (Sus scrofa, UniProt P15145); conditions: LA 0.2 mg/mL in SIF without pancreatin pH 6.5, 10 μM MgCl2, AM 0.66 unit/mL (porcine kidney), 37°C; UPLC-MS/MS; two separate runs
T1 sequence (P15145 1-963): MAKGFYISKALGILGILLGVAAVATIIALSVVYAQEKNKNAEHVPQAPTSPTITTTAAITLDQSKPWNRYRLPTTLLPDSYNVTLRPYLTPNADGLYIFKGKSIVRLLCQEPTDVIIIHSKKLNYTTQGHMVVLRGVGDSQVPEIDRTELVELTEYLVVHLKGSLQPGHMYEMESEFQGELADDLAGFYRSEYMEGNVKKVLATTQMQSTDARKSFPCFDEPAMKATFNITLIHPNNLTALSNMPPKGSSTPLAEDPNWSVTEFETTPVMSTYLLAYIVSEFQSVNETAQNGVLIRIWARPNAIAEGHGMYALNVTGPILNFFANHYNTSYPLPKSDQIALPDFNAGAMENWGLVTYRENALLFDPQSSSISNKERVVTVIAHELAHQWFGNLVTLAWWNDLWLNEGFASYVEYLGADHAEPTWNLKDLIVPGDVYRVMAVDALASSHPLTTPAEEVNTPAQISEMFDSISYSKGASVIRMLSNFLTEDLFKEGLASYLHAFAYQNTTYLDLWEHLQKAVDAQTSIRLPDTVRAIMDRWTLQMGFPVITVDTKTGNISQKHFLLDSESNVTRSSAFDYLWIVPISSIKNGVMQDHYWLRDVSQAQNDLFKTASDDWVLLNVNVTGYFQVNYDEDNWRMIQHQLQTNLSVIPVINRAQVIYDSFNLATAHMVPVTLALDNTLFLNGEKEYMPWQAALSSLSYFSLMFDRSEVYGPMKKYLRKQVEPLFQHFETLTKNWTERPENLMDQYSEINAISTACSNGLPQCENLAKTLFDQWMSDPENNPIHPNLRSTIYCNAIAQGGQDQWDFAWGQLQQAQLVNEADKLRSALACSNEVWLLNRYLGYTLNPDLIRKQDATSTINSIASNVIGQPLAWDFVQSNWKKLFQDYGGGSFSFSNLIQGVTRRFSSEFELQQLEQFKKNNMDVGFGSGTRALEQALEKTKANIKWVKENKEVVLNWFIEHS
Experimental: Aminopeptidase M (AM) degradation of LA in vitro was carried out as follows. LA solution (0.2 mg/mL) in simulated intestinal fluid (SIF) (without Pancreatin), USP XXII Formulation: Ricca Chemical) pH 6.5 containing MgCl2 (10 μM; catalyst support) was combined with AM (porcine kidney: Sigma) solution (final AM concentration is 0.66 unit/mL) in a vial. The combined mixture was incubated at 37°C in a shaker water bath, and samples for UPLC-MS analysis were collected at various timepoints quenched with 5% TFA solution (in 80% ACN: 20% DI water). Quenched samples were centrifuged at 13000xg for 5-minutes and the resulting supernatants were stored at -80°C for future MS analysis.
A simple and sensitive liquid chromatography/tandem mass spectrometric (LC-MS/MS) method was developed for the identification and quantification of LA and its digestive fragments in the enzyme digest solution and other matrices. Samples were prepared with simple ACN and TFA in water quenching of the enzyme activity and precipitation of protein(s). The supernatant was then diluted appropriately and analyzed directly using the UPLC-MS/MS method Chromatographic separations were achieved on a C18 reversed phase column using an ACN and TFA-water gradient. The detection was performed in MS/MS mode via positive electrospray ionization (ESI+) interface.
A Waters Quattro Xevo TOD mass spectrometer equipped with an electrospray ionization source and a Waters Acquity™ UPLC BEH system (Waters, Milford, MA, USA) with a binary solvent and a sample manager was used in this study. The LC column (Waters, C18, 50×2.1 mm, 1.7 μm) was operated at 35°C and the autosampler was operated at ambient temperature. A binary mobile phase (mobile phase A and mobile phase B) with a linear solvent gradient system was used for the chromatographic separations of larazotide and its digestive fragments. Mobile phase A, 0.02% TFA in water and mobile phase B, 0.02% TFA in ACN. The UPLC-MS/MS method was qualified for the determination and identification of larazotide and the larazotide digestive fragments in the enzyme digest solution.

Molecule	Fragment detected in Ringers solution during ex vivo recovery [1]	Degradation by aminopeptidase M and presence of fragments [4]	other results
CC(C)C[C@@H](NC(=O)[C@H](N)C(C)C)C(=O)N[C@@H](C(=O)N[C@H](CCC(N)=O)C(=O)N1CCC[C@@H]1C(=O)O)C(C)C [A6F4] (H-[dV][dL][dV][dQ][dP]-OH)	formation		
VLVQP [F4]	detected		
H-GGVLVQPG-OH			cleaved bond [2]: Gly-Val; cleaved bond [3]: Gly-Val; also recorded: Pro-Gly, major
GGVLVQP [F3]	highest concentration out of all four fragments		
GGVLVQPG [LA, Larazotide acetate]		fragmented throughout the entirety of the experiment	half-life [1]: 35 min
CC(C)C[C@@H](NC(=O)[C@H](NC(=O)CNC(=O)CN)C(C)C)C(=O)N[C@@H](C(=O)N[C@H](CCC(N)=O)C(=O)N1CCC[C@@H]1C(=O)NCC(=O)O)C(C)C [A6] (H-GG[dV][dL][dV][dQ][dP]G-OH)			Stability to brush-border enzyme degradation compared with LA ([1]; ex vivo stability data, Ussing chamber): significantly more stable; half-life [1]: 78 min
CC(C)C[C@@H](NC(=O)[C@H](NC(=O)CN)C(C)C)C(=O)N[C@@H](C(=O)N[C@H](CCC(N)=O)C(=O)N1CCC[C@@H]1C(=O)NCC(=O)O)C(C)C [A6F1] (H-G[dV][dL][dV][dQ][dP]G-OH)	predominant fragment formed		
CC(C)C[C@@H](NC(=O)[C@H](N)C(C)C)C(=O)N[C@@H](C(=O)N[C@H](CCC(N)=O)C(=O)N1CCC[C@@H]1C(=O)NCC(=O)O)C(C)C [A6F2] (H-[dV][dL][dV][dQ][dP]G-OH)	formation		
GVLVQPG [F1]	are formed	found in all samples collected during the run	
VLVQPG [F2]	are formed	not being detected after 90 minutes	
